# Measured values taken from ChEMBL document CHEMBL1128697, “Synthesis of isoornithines and methylputrescines. An evaluation of their inhibitory effects on ornithine decarboxylase” (J Med Chem, 1995).
# Target: T1, Ornithine decarboxylase (Rattus norvegicus, UniProt P09057)
# T1 sequence (P09057 whole entry): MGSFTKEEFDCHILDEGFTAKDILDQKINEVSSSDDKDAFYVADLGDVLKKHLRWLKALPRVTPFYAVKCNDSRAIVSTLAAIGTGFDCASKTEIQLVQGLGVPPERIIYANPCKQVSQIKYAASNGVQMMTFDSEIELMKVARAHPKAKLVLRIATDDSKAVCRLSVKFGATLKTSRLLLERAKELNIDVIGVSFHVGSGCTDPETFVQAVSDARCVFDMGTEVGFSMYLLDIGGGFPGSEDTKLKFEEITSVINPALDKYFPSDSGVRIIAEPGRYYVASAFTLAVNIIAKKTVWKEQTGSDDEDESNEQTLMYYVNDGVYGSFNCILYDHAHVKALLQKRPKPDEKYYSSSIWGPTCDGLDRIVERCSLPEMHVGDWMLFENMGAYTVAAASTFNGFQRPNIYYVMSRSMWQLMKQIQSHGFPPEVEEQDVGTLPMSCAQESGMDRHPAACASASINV
# Experiment: Inhibition of liver Ornithine decarboxylase in thioacetamide-treated rat
row,Compound,Ki
1,CC(C)(CN)C(C)(CN)C(=O)O (stereo unspecified),> 11 mM
2,CC(CN)C(C)(CN)C(=O)O (stereo unspecified),1.65 mM
3,CC(C)(CN)C(CN)C(=O)O (stereo unspecified),> 11 mM
4,CC(CN)C(CN)C(=O)O (stereo unspecified),0.72 mM
5,CC(CN)(CCN)C(=O)O (stereo unspecified),> 11 mM

# Other lines, results leading:
row,Ki,Compound
1,> 10.5 mM,CC(CN)C(C)(C)CN (stereo unspecified)
2,3.5 mM,NCCCCN [PUTRESCINE]
3,> 10 mM,CC(C)(CN)CCN
4,6.1 mM,CC(CN)C(C)CN (stereo unspecified)
5,1.79 mM,NCCC(CN)C(=O)O (stereo unspecified)
6,> 11 mM,CC(C)(CN)C(C)(C)CN
